According to PubChem BioAssay (NCI):
Where “and” joins values, the source holds several entries; their conditions need not be identical. Identical values can stand only once.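 All cell lines were grown in 96-well plates and treated with compound for 48 hours. Abbreviation: GI50, concentration required for 50% inhibition of growth. At the TGI there is no net growth.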

What was measured:
Assay in all cases: NCI tumour cell line growth inhibition, 48 h
[1] = test system: MDA-N
[2] = test system: LXFL 529 NSCLC
[3] = test system: DMS 273 small cell lung
[4] = test system: DMS 114 small cell lung
[5] = test system: XF 498 CNS
[6] = test system: HOP-18 NSCLC
[7] = test system: M19-MEL melanoma
[8] = test system: SNB-78 CNS
[9] = test system: RXF-631 renal
[10] = test system: P388/ADR leukemia
[11] = test system: SN12K1 renal

Structure (SMILES) | TGI [1] | TGI [2] [µM] | TGI [3] [µM] | TGI [4] [µM] | TGI [5] [µM] | TGI [6] [µM] | TGI [7] [µM] | TGI [8] [µM] | other results
Cc1cc(NC(=O)NC(=O)c2ccccc2NC(=O)CN)ccc1Oc1ncc(Br)cn1 | 1.1 µM and 0.178 µM | 75 | 38.1 | 75 | 75 | – | – | – | GI50 [1]: 0.0271 µM
CC1(C)N[P+]2(Nc3ccccc3O2)OC1=O (configuration not stated) | 38.7 µM | – | – | – | – | – | – | – | –
CNC(=O)OCc1[nH]ccc2c(C)c3nc4ccc(OC)cc4c3cc12 | – | > 100 | > 100 | – | > 33.8 | 34.1 | > 100 | > 100 | –
CC(=O)O[C@H]1CC[C@@]2(C)C(=CC[C@@H]3C2CC[C@]2(C)Nc4[nH]ncc4CC32)C1 (some centres not stated) | – | 36.4 | 31.8 | 34.2 | 34.2 | – | 60.1 | > 100 | TGI [9]: 34.7 µM
O=C(O)c1ccc(C2C3C=CC(C3)C2[N+](=O)[O-])cc1 (configuration not stated) | – | > 100 | > 100 | > 100 | > 100 | – | > 100 | > 100 | TGI [9]: > 100 µM
NC1=C(Cl)C(=O)c2ccccc2C1=O | 3.19 µM | 25.2 | 18.9 | 13.4 | 24.5 | 22 | 1.76 | > 63.3 | –
COc1ccccc1NC(=O)C1=C(C)NC(C)=C(C(=O)Nc2ccccc2OC)C1c1cccc2c1OCO2 | – | > 100 | > 100 | > 100 | – | > 100 | > 100 | – | TGI [9]: > 100 µM
Cn1c(=O)oc2cc(C3CCC(=O)N3Cc3ccc(Cl)cc3)ccc21 (configuration not stated) | – | > 100 | > 100 | > 100 | > 100 | > 100 | > 100 | > 100 | –
Nc1nc(SCCC/C=C/I)nc2c1ncn2C1OC(CO)C(O)C1O (configuration not stated) | – | – | > 202 | > 202 | > 202 | > 202 | > 202 | > 202 | –
COC(=O)C1=Cc2c(cc(OC)c(OC)c2OC)[C@H](c2ccc(OC)c(OC)c2OC)C1C(=O)OC (some centres not stated) | – | > 100 | > 100 | > 100 | – | – | > 100 | > 100 | TGI [9]: > 100 µM
Clc1cc(Cl)cc(Nc2nc3ccccc3nc2-c2cccs2)c1 | – | > 100 | 27.2 | – | 73.2 | 88.8 | 88.2 | > 100 | TGI [9]: 31.8 µM
CN(CCN(C)C(=O)CCOS(C)(=O)=O)C(=O)CCOS(C)(=O)=O | – | > 100 | > 100 | > 100 | > 100 | > 100 | – | > 100 | –
CCCCCCCCCCCCCCCCn1cc[n+](Cc2ccccc2)c1C | 1.32 µM | – | – | – | – | – | – | – | GI50 [1]: 0.328 µM
CCC[CH2][Sn]1([CH2]CCC)[O]C(=O)CN=Cc2ccccc2[O]1 | – | 0.236 | 2.12 | 0.295 | 0.282 | 1.36 | 1.15 | 1.34 | GI50 [6]: 0.337 µM; GI50 [2]: 0.102 µM; GI50 [3]: 0.864 µM; GI50 [4]: 0.134 µM; GI50 [5]: 0.137 µM; GI50 [7]: 0.249 µM; GI50 [9]: 0.182 µM; TGI [9]: 0.324 µM; GI50 [8]: 0.232 µM
O=C(CCCn1ccnc1[N+](=O)[O-])NCCn1ccnc1[N+](=O)[O-] | > 100 µM | – | – | – | – | – | – | – | –
COc1ccc(C(=O)CC(c2ccc(OC)c(OC)c2)c2c(O)c3ccccc3oc2=O)cc1OC (configuration not stated) | > 100 µM | – | – | – | – | – | – | – | –
O=C(O)CCCNS(=O)(=O)c1ccc2ccccc2c1 | – | > 100 | > 100 | – | > 100 | > 100 | > 100 | – | TGI [9]: > 100 µM
CCOC(=O)/C(=C\c1ccc(F)cc1)C(C)=O | > 100 µM | – | – | – | – | – | – | – | –
CCOC(=O)[C@H]1Nc2ccc(Cl)cc2[C@H]2c3ccccc3O[C@H]21 | – | > 100 | > 100 | > 100 | > 100 | > 100 | > 100 | > 100 | TGI [9]: > 100 µM
Cc1cc2c(cc1Br)C1(C)CCC(C)C1(C)O2 (configuration not stated) | – | > 100 | 50.4 | 52 | 50.6 | > 100 | 70.1 | > 100 | –
CCOC(=O)C(=O)Nc1ccc(Cl)c(C(F)(F)F)c1 | – | > 100 | > 100 | > 100 | – | > 100 | > 100 | > 100 | TGI [9]: > 100 µM

Structure (SMILES) | TGI [1] | TGI [2] [µM] | TGI [3] [µM] | TGI [4] [µM] | TGI [5] [µM] | TGI [6] [µM] | TGI [7] [µM] | TGI [8] [µM] | other results
c1cncc(CNc2ncn[nH]2)c1 | > 100 µM | – | – | – | – | – | – | – | –
NC(=O)c1c2c(cc3c(=O)c4ccccc4[nH]c13)CCCC2 | – | > 100 | > 100 | > 100 | > 100 | > 100 | > 100 | – | TGI [9]: > 100 µM
CC(C)=CC1CC(C)C2(CCC3(C)CC4C(C(=O)CC4(C)O)/C(C=O)=C\CC32)O1 (configuration not stated) | 0.258 µM | – | – | – | – | – | – | – | –
CC1CC2(CCC1OCc1ccccc1)OCCO2 (configuration not stated) | – | > 100 | > 100 | > 100 | > 100 | – | > 100 | > 100 | –
COc1ccc(C(O)/C(=C/n2ccnc2)c2ccccc2)cc1OC (configuration not stated) | – | – | > 100 | > 100 | > 100 | > 100 | > 100 | – | TGI [9]: > 100 µM
COC(=O)[C@]12CC=C3O[C@@H]4OC5(CCCCC5)O[C@@H]4[C@H]3C1C(=O)C=CC2=O (some centres not stated) | 33.6 µM | 23.8 | 34.3 | 33.7 | 20 | 32.6 | 30.9 | 37.2 | TGI [10]: 10.5 µM; TGI [11]: 31.4 µM
NC(=O)NCCSC1CCCCC1O (configuration not stated) | > 100 µM | – | – | – | – | – | – | – | –
CN1CCC(n2[nH]c(-c3ccccc3)c(Cc3ccccc3)c2=O)CC1 | > 100 µM | – | – | – | – | – | – | – | –
C=CCN(CC=C)CC(C(C)=O)C(c1ccccc1)c1c(O)c2ccccc2oc1=O (configuration not stated) | – | > 100 | > 100 | > 100 | > 100 | – | > 100 | > 100 | –
N#C[C@H]1Nc2ccccc2[C@@H](O)C1O (some centres not stated) | > 100 µM | – | – | – | – | – | – | – | –
O=[N+]([O-])c1ccc(N=Nc2c(O)[nH]c3ccccc23)cc1 | > 100 µM | – | – | – | – | – | – | – | –
CC[C@@]1(O)C(=O)OCc2c1cc1n(c2=O)Cc2cc3c(NC(=O)CN)cccc3nc2-1 | 46.7 µM | – | – | – | – | – | – | – | –
CC(=O)Nc1ccc(-c2nnc(SCC(=O)Nc3ccccc3C)o2)cc1 | – | > 100 | > 100 | > 100 | – | > 100 | > 100 | > 100 | –
COC(=O)n1c(CBr)c(Br)c2ccccc21 | – | – | > 100 | > 100 | – | – | > 100 | – | –
O=CN1CCN(C=S)CC1 | – | > 100 | > 100 | > 100 | > 100 | – | > 100 | > 100 | TGI [9]: > 100 µM
CO/C(=N\N=C\c1cccc(C(F)(F)F)c1)c1ccncc1 | 5.17 µM and 32.5 µM | – | – | – | – | – | – | – | GI50 [1]: 3.25 µM
COc1ccc2c(c1)CCCC1C3=NCCC3(C)CSC21 (configuration not stated) | – | > 100 | > 100 | > 100 | > 100 | > 100 | > 100 | > 100 | –
Cc1ccc2nc(N/N=C/c3cccc(C)n3)cc(C)c2c1 | 32.5 µM | – | – | – | – | – | – | – | –
CN(C)S(=O)(=O)c1ccc(Nc2ccc(O)c3c2C(=O)c2c([N+](=O)[O-])ccc(O)c2C3=O)cc1 | > 100 µM | – | – | – | – | – | – | – | –
CC(=O)OC12CC(C)C3(O)C4C=C(C)C(=O)[C@@]4(O)CC(CO)=C[C@H]3C1C2(C)C (some centres not stated) | – | – | – | – | – | – | – | – | GI50 [1]: 0.239 µM
